From US20100099613A1, “PEPTIDES FOR INDUCING A CTL AND/OR HTL RESPONSE TO HEPATITIS C VIRUS” (GENIMMUNE, priority 2004, published 2010)
Where a SMILES comes first, the peptide text is derived from it.

How the values were obtained:
[1] = tested on: DRB1*0401-Tg mice (DR4 Tg); experiment: Activity of HTL epitopes, ELISPOT of CD4+ cells, pooled samples; format: in vivo, mouse; conditions: Table 26, 2 experiments
Procedure: (§1) The experiments to test the immunogenicity of HLA-DR peptides differs slightly from example 6 in that complete Freund's is used as the adjuvant. Peptides are tested in either DRB1*0401-Tg mice or surrogate mice such as Balb/c and CBA. In this particular example, HLA-restricted peptide responses are analyzed in pooled samples.

[2] = tested on: Balb/c (H2^bxd) mice; experiment: as above; format: in vivo, mouse; conditions: Table 27, 2 experiments
Procedure: as §1

CC(C)C[C@H](NC(=O)[C@@H](NC(=O)[C@@H](NC(=O)[C@@H](N)CC(C)C)C(C)C)C(C)C)C(=O)N[C@@H](C)C(=O)N[C@H](C(=O)N[C@@H](C)C(=O)N[C@H](C(=O)N1CCC[C@H]1C(=O)N1CCC[C@H]1C(=O)NCC(=O)N[C@@H](CO)C(=O)N[C@H](C(=O)N[C@H](C(=O)N[C@H](C(=O)O)C(C)C)[C@@H](C)O)C(C)C)[C@@H](C)O)[C@@H](C)O (H-LVVLATATPPGSVTV-OH; N-terminus and C-terminus assumed)
Immunized SFC/10^6 ± St Error [1]: 111.7 ± 42.3 SFC/10^6

CC[C@H](C)[C@H](NC(=O)CNC(=O)[C@@H](NC(=O)[C@H](C)N)C(C)C)C(=O)N[C@@H](Cc1ccccc1)C(=O)N[C@@H](CCCNC(=N)N)C(=O)N[C@@H](C)C(=O)N[C@@H](C)C(=O)N[C@H](C(=O)N[C@@H](CS)C(=O)N[C@H](C(=O)N[C@@H](CCCNC(=N)N)C(=O)NCC(=O)N[C@H](C(=O)N[C@@H](C)C(=O)O)C(C)C)[C@@H](C)O)C(C)C
Immunized SFC/10^6 ± St Error [2]: 1330.4 ± 111.9 SFC/10^6
